Assay results taken from US9259401B2 (priority 2011, dated 2016).

What was measured:
rats = conditions: 1.25, 2.5, 5 and 10 mg/kg P.O., chronic treatment 14 days; cited from earlier work
Male Laca mice = assay: Porsolt Forced Swim test (behavioural despair test); format: in vivo
Procedure: Method: Porsolt Forced Swim test (also called behavioural despair test)
Animals are subjected to two trials during which they are force to swim in an acrylic glass cylinder filled with water and from which they cannot escape. The first trial lasts 15 minutes. Then, after 24-hours, a second trial is performed which lasts 5 minutes. The time that the animal spends without moving in the second trial is measured. This immobility time is decreased by antidepressants.
After some time, the mice give up the attempt to escape from the water and subside into immobility. The duration of the immobility is measured. An animal was considered to be immobile whenever it remained floating passively in the water in a slightly hunched but upright position, its nose above the water surface. […] The total immobility period during the 6-min test was recorded with the help of stopwatch.
The immobility period data obtained from tables 1, 2 and 3 is plotted against the dose administered in FIG. 1, FIG. 2 and FIG. 3 respectively, as shown in the drawing accompanying this specification.
Test Procedures: Porsolt Forced Swim test. Rectangular glass jar (25×12×25 cm^3) containing 15 cm of water maintained at 24±1° C.
The immobility period data obtained from Tables 4, 5, 6 and 7 is plotted against the dose administered in FIG. 4, FIG. 5, FIG. 6 and FIG. 7 respectively, as shown in the drawing accompanying this specification.

[1] = Safety and tolerability of a single dose in healthy human subjects; format: in vivo; conditions: curcumin 1 gm single dose
Description: The secondary aim of study was to monitor the safety and tolerability of a single dose of 1 g curcuminoids when administered in 12 healthy human subjects.

SMILES: COc1cc(C=CC(=O)CC(=O)C=Cc2ccc(O)c(OC)c2)ccc1O [Curcumin, 1,7-bis(4-hydroxy-3-methoxyphenyl)-1,6-heptadien-3,5-dione]
- Immobility time in the forced swim test (rats): reduced the immobility time
- Potentiation with sub-effective dose of desipramine (Male Laca mice; 50 mg/kg with desipramine 5 mg/kg): failed to show any potentiation
- Potentiated effect with sub-effective dose of tranylcypromine (Male Laca mice; 50 mg/kg with tranylcypromine 5 mg/kg): None
- % Decrease in immobility w.r.t saline treated group (Male Laca mice; Table 1, dose 50 mg/kg): 22.55%
- Immobility period (in seconds) (Male Laca mice; Table 1, dose 50 mg/kg): 171.8 ± 10.87^ seconds
- % Decrease in immobility w.r.t saline treated group (Male Laca mice; Table 2, dose 100 mg/kg): 9.89%
- Immobility period (Male Laca mice; Table 2, dose 100 mg/kg): 174.2 ± 15.17 s
- % Decrease in immobility w.r.t saline treated group (Male Laca mice; Table 3, dose 200 mg/kg): 31.10%
- Immobility period (Male Laca mice; Table 3, dose 200 mg/kg): 133.2 ± 26.82 s
- % Decrease in immobility w.r.t saline group (Male Laca mice; Table 4, alone, 50 mg/kg): 12.79%
- Immobility period (in seconds) (Male Laca mice; Table 4, alone, 50 mg/kg): 171.8 ± 10.87^ seconds
- % Decrease in immobility w.r.t vehicle group (Male Laca mice; Table 5, alone, 50 mg/kg): 24.46%
- Immobility period (Male Laca mice; Table 5, alone, 50 mg/kg): 160.33 ± 19.09 s
- % Decrease in immobility w.r.t vehicle group (Male Laca mice; Table 6, alone, 50 mg/kg): 15.90%
- Immobility period (Male Laca mice; Table 6, alone, 50 mg/kg): 215.50 ± 13.97 s
- % Decrease in immobility w.r.t vehicle group (Male Laca mice; Table 7, alone, 50 mg/kg): 4.91%
- Immobility period (Male Laca mice; Table 7, alone, 50 mg/kg): 262.25 ± 11.89 s
- Tolerability ([1]; all subjects): well tolerated
- Adverse events ([1]; entire course of study): no adverse events reported
